Source: US10010576B2, “Method of treatment” (Hexima Limited, priority 2014, dated 2018)

Experiments:
Escherichia coli = assay: Inhibition of the growth of Escherichia coli; type: cell-based; settings: 0.1625 μM to 10 μM, 18 hours at 37° C., OD595
Protocol: A single E. coli colony was used to inoculate 5 ml of Luria-Bertani media and grown overnight at 37° C. The following day, the optical density of the culture was measured and the E. coli diluted to an optical density at 600 nm (OD600) of 0.01 in Mueller-Hinton Broth. Diluted E. coli were added to 96-well plates with defensins at concentrations of 10 μM, 5 μM, 2.5 μM, 1.25 μM, 0.625 μM, 0.3125 μM or 0.1625 μM. Plates were read at OD595 to obtain time zero data points. Plates were incubated at 37° C. for 18 hours before reading again at OD595 to assess the amount of E. coli growth.

[1] = system: Human monocytic lymphoma (U937) cells; type: cell-based
Protocol: Human monocytic lymphoma (U937) cells are cultured in RPMI-1640 medium. All culture media are supplemented with 5-10% v/v fetal calf serum, 100 U/ml of penicillin, and 100 μg/ml of streptomycin. Cell lines are cultured at 37° C. in a humidified atmosphere containing 5% v/v CO2. Adherent cell lines are detached from the flask by adding a mixture containing 0.25% v/v trypsin and […] EDTA. A flow cytometry-based propidium iodide (PI) uptake assay is performed to analyze the ability of plant defensins to permeabilize U937 cells (essentially as described in Poon et al, 2014). Briefly, cells are suspended to 1×10^6 cells/ml in 0.1% v/v BSA/RPMI-1640 and incubated with plant defensins (10 μM) at 37° C. for 30 min Samples are added to PBS containing a final concentration of 1 μg/ml PI and placed on ice. Samples are then analyzed immediately using the BD FACSCanto II Flow Cytometer and BD FACSDiva software v6.1.1. The resultant flow cytometry data is analyzed using FlowJo software v8.8.6. Cells are gated appropriately based on forward scatter and side scatter and cell permeabilization is defined by PI-positive staining.

T. interdigitale = assay: Antifungal growth inhibition assay in 96 well microtitre plates (A595); type: cell-based, Trichophyton interdigitale
Protocol: (§1) The inhibitory effects of the plant defensins on the growth of Trichophyton rubrum, T. interdigitale, Microsporum fulvum and C. albicans (obtained from the National Mycology Reference Centre, South Australia Pathology at the Women's and Children's Hospital, Adelaide, Australia) are measured essentially as described by Broekaert et al. (1990) FEMS Microbiol Lett 69:55-59. Spores of T. rubrum, T. interdigitale and M. fulvum are isolated from sporulating fungus growing on 1⁄2 strength Sabouraud dextrose agar (SDA). Spores were removed from the plates by the addition of 1⁄2 strength potato dextrose broth (PDB). C. albicans cells are grown in Yeast Peptone Broth (YPD) for 16 h. Spore and cell concentrations are measured using a hemocytometer. Antifungal assays are conducted in 96 well microtitre plates essentially as herein described. Wells are loaded with 20 μm L of filter sterilized (0.22 μm syringe filter, Millipore) defensin (10× stock for each final concentration) or water and 80 μm L of 5×10^4 spores/mL (T. rubrum, T. interdigitale, M. fulvum) or 5,000 cells/mL (C. albicans) in 1⁄2 strength PDB. The plates are incubated at 30° C. Fungal growth is assayed by measuring optical density at 595 nm ([…]) using a microtitre plate reader (SpectraMax Pro M2; Molecular Devices. Growth is allowed to proceed until the optical density (OD) of the fungus in the absence of any test defensin reached an OD of 0.2. Each test is performed in duplicate.

C. albicans = assay: as above; type: cell-based, Candida albicans
Protocol: as §1

[2] = Penetration through human nails (nail adapter, wetted cotton bud receptor, RP-HPLC); type: in vitro ADME
Protocol: Penetration of NaD1 through human nails was measured according to the method of Hui et al. (2002) J Pharm Sci 91(1):189-195. Human toenails were obtained from ScienceCare (USA) and washed with phosphate buffered saline (details, PBS) before being placed on a kimwipe that had been soaked in PBS for 3 h to rehydrate the nail. […]
The cotton bud in contact with the underside of the nail was removed after 24 h and every 24 h following. Protein that had passed through the nail was recovered from the cotton bud by washing twice with 500 μL of 0.1% v/v trifluoroacetic acid. Recovered protein was quantified using RP-HPLC.

Microsporum fulvum = assay: Antifungal growth inhibition assay in 96 well microtitre plates (A595); type: cell-based
Protocol: as §1

Trichophyton rubrum [3] = assay: as above; type: cell-based
Protocol: as §1

[4] = system: clinical isolates of T. rubrum; assay: Cell survival assay for clinical isolates of T. rubrum (plating after incubation); type: cell-based, Trichophyton rubrum; settings: incubated with 100 µg/mL HXL008 for 72 h, plated on Sabouraud dextrose agar, 5 days at 30° C.
Protocol: After incubation for 72 h, the media from wells containing clinical isolates of T. rubrum incubated with 100 […] HXL008 was plated onto fresh Sabouraud dextrose agar. Plates were incubated at 30° C. for 5 days to allow colonies to develop before being photographed.

[5] = system: Trichophyton rubrum, T. interdigitale, Microsporum fulvum and C. albicans; assay: Inhibition assays, summary across the range of fungal pathogens; type: cell-based; settings: summary of Table 3
Protocol: as §1

Trichophyton rubrum [6] = assay: Inhibition of the growth of Trichophyton rubrum over 28 days; type: cell-based
Protocol: The inhibitory effect of HXL008 on the growth of Trichophyton rubrum (obtained from the National Mycology Reference Centre, South Australia Pathology at the Women's and Children's Hospital, Adelaide, Australia) was monitored over 28 days.
Spores of T. rubrum, are isolated from sporulating fungus growing on ½ strength Sabouraud dextrose agar. Spores are removed from the plates by the addition of ½ strength potato dextrose broth (PDB). Spore and cell concentrations are measured using a hemocytometer.
Spores were diluted to a concentration of 5×10^4 spores/mL in ½ PBD (2 mL) containing 0, 10 or 50 μg/mL HXL008. Cultures are incubated at 30 C without shaking. After 24 h, 100 μL of each culture is extracted and plated onto ½ SDA plates. An additional 100 uL of ½ PDB is then added containing either 0, 20 or 100 μg of HXL008. SDA plates are then incubated at 30 C for 5 days. This process is repeated every 24 h for 28 days. After 15 days, the culture containing no HXL008 becomes too thick to pipette and is no longer used in the assay.

With “LL37: human antimicrobial peptide used as a control (LLGDFFRKSKEKIGKEFKRIVQRIKDFLRNLVPRTES; Antibacterial peptide LL-37; UniProt P49913 134-170, looked up) [reference compound]” the “Inhibition of growth of E. coli” value (Escherichia coli) was “inhibited the growth of E. coli in a concentration dependent manner”.
For “NaD1: Solanaceous Class II plant defensin from Nicotiana alata, SEQ ID NO:18 (RECKTESNTFPGICITKPPCRKACISEKFTDGHCSKILRRCLCTKPC; NaD1 Nicotiana alata)”, the “Cells permeabilized (PI-positive)” value [1] was 33%, the “IC50 against T. interdigitale” value (T. interdigitale) was 10 µg/mL and the “Inhibition of growth of E. coli” value (Escherichia coli) was “did not inhibit growth of E. coli at the concentrations tested”. The “IC50 against C. albicans” value (C. albicans) was 20 µg/mL, the “Nail penetration” value [2] was “able to penetrate nails faster and more effectively than the active ingredients of current topical onychomycosis therapies” and the “IC50 against M. fulvum” value (Microsporum fulvum) was 5.3 µg/mL. For the same substance, the “IC50 against T. rubrum” value (Trichophyton rubrum [3]) was 8 µg/mL.
In the case of “HXL008: Class I plant defensin from Picramnia pentandra, SEQ ID NO:1 (KVCTKPSKFFKGLCGTDGACTTACRKEGLHSGYCQLKGFLNSVCVCRKHC; HXL008 Picramnia pentandra)”, the “Surviving colonies on agar plates” value [4] is reported as 1-3 colonies, the “Cells permeabilized (PI-positive)” value [1] is reported as “less than 2%” and the “IC50 against T. interdigitale” value (T. interdigitale) is reported as 3.5 µg/mL. For the same substance, the “Antifungal activity across the range of fungal pathogens” value [5] was “the most effective plant defensins across the range of fungal pathogens”, the “Visible growth of T. rubrum in culture” value (Trichophyton rubrum [6]; 10 μg/mL or 50 μg/mL, over the duration of the assay (28 days)) was “did not display any visible growth” and the “T. rubrum cells killed” value (Trichophyton rubrum [6]; 50 μg/mL, within 24 h) was “more than 80%”. The “T. rubrum cells dead” value (Trichophyton rubrum [6]; after 20 days of treatment) was “more than 99.5%”, the “Surviving colonies per plate” value (Trichophyton rubrum [6]; after 20 days of treatment, 100 μL of culture plated) was no more than 1 colony and the “Inhibition of growth of E. coli” value (Escherichia coli) was “did not inhibit growth of E. coli at the concentrations tested”. For the same substance, the “IC50 against C. albicans” value (C. albicans) was 20 µg/mL, the “Nail penetration” value [2] was “able to penetrate nails faster and more effectively than the active ingredients of current topical onychomycosis therapies” and the “IC50 against M. fulvum” value (Microsporum fulvum) was 7 µg/mL. The “IC50 against T. rubrum” value (Trichophyton rubrum [3]) was 3 µg/mL.
For “HXL004: Class I plant defensin from Nicotiana benthamiana, SEQ ID NO:7 (Table 1) (RTCESQSHRFKGLCFSRSNCASVCHTEGFNGGHCRGFRRRCFCTRHC; HXL004 Nicotiana benthamiana)”, the “Cells permeabilized (PI-positive)” value [1] was 13%, the “IC50 against T. interdigitale” value (T. interdigitale) was 19 µg/mL and the “Antifungal activity across the range of fungal pathogens” value [5] was “intermediate activity”. The “Inhibition of growth of E. coli” value (Escherichia coli) was “inhibited the growth of E. coli in a concentration dependent manner”, the “IC50 against C. albicans” value (C. albicans) was 20 µg/mL and the “Nail penetration” value [2] was “able to penetrate nails faster and more effectively than the active ingredients of current topical onychomycosis therapies”. For the same substance, the “IC50 against M. fulvum” value (Microsporum fulvum) was 12 µg/mL and the “IC50 against T. rubrum” value (Trichophyton rubrum [3]) was 27.5 µg/mL.
